≈ marks a conversion by molar mass, not a printed value.
Tests used:
Phosphodiesterase 4 [1] = biological target: T1, Phosphodiesterase 4 (Homo sapiens, UniProt P27815+Q08499+Q07343+Q08493); experiment: Inhibition of PDE4 (unknown origin) by fluorescent based assay; assay type: protein assay
Phosphodiesterase 7 [2] = biological target: T2, Phosphodiesterase 7 (Homo sapiens, UniProt Q13946+Q9NP56); experiment: Inhibition of full length PDE7 (unknown origin) using FAM-cAMP as substrate by fluorescence based analysis; assay type: protein assay
[3] = biological target: 3',5'-cyclic-AMP phosphodiesterase 7B (Homo sapiens, UniProt Q9NP56); experiment: Inhibition of PDE7B (unknown origin) by 3H-cAMP scintillation proximity assay
Chain of 3',5'-cyclic-AMP phosphodiesterase 7B (Q9NP56 whole entry, the tested form may be a part): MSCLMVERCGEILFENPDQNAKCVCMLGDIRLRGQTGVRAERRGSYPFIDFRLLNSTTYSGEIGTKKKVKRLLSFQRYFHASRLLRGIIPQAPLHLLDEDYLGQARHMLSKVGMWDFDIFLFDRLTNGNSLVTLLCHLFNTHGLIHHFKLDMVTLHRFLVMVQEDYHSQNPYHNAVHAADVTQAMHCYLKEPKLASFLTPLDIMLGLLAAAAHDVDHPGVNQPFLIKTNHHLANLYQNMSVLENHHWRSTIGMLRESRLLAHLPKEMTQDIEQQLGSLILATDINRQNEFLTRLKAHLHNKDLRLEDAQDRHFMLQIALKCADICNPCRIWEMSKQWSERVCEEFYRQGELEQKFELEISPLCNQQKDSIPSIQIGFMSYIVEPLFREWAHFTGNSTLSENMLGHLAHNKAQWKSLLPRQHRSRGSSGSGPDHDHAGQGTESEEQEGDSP

[4] = Selectivity index, ratio of IC50 for inhibition of PDE7A1 (130 to 482 residues) (unknown origin) expressed in Escherichia coli BL21 to IC50 for inhibition of recombinant PDE4D2 (86 to 413 residues) (unknown origin) expressed in Escherichia coli BL21
[5] = Inhibition of human PDE4 catalytic domain expressed in Escherichia coli
Phosphodiesterase 7 [6] = biological target: T2, Phosphodiesterase 7; experiment: Inhibition of recombinant PDE7 (unknown origin) expressed in Escherichia coli BL21 (DE3) using [3H]cAMP as substrate preincubated for 15 mins followed by compound addition and incubated for 1 hr by liquid scintillation method
Phosphodiesterase 4 [7] = biological target: T1, Phosphodiesterase 4; experiment: Inhibition of human recombinant PDE4; assay type: protein assay
[8] = Oral bioavailability in mouse at 2.5 mg/kg; assay type: ADME, organism-based; conditions: in vivo
[9] = biological target: 3',5'-cyclic-AMP phosphodiesterase 4D (Homo sapiens, UniProt Q08499); experiment: Inhibition of human PDE4D3
Chain of 3',5'-cyclic-AMP phosphodiesterase 4D (Q08499 whole entry): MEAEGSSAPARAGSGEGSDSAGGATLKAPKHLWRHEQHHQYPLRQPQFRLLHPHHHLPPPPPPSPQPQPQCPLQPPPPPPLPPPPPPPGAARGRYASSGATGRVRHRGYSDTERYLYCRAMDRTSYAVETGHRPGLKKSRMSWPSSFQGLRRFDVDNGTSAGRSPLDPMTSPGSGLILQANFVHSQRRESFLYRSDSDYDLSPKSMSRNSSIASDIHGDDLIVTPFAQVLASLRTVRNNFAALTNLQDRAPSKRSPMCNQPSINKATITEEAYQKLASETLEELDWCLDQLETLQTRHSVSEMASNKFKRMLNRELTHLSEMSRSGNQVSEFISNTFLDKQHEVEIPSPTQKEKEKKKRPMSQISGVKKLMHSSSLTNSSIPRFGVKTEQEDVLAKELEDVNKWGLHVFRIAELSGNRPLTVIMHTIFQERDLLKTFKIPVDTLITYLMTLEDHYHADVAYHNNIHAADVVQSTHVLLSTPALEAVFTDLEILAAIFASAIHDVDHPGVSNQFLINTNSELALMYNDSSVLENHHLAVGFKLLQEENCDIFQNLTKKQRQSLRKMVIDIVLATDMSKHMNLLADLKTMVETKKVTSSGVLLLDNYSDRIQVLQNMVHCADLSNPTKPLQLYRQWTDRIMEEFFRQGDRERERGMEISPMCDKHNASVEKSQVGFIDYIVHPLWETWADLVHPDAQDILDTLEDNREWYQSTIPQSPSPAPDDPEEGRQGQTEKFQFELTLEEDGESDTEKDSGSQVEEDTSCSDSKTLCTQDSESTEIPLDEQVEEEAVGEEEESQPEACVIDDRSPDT

[10] = biological target: T3, High affinity 3',5'-cyclic-AMP phosphodiesterase 7A (Homo sapiens, UniProt Q13946); experiment: Inhibition of recombinant PDE7A1 (unknown origin) expressed in Escherichia coli BL21 using [3H]cAMP as substrate preincubated for 15 mins followed by compound addition and measured after 1 hr by liquid scintillation method
T3 sequence (Q13946 whole entry): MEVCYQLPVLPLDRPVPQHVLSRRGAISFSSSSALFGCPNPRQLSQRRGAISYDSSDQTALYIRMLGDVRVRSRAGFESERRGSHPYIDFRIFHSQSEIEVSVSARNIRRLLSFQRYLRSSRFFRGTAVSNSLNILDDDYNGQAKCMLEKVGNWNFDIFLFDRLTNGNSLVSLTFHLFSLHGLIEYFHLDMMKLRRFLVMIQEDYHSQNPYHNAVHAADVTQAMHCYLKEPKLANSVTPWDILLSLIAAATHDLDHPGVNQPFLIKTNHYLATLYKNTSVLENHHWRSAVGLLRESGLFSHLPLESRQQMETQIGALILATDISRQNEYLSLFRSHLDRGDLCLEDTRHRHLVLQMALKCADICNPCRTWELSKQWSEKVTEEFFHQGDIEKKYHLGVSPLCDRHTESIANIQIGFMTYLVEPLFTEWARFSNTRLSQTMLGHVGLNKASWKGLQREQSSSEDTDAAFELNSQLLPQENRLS

[11] = biological target: T4, Glycogen synthase kinase-3 beta (Homo sapiens, UniProt P49841); experiment: Inhibition of GSK-3beta (unknown origin)
T4 sequence (P49841 whole entry, the tested form may be a part): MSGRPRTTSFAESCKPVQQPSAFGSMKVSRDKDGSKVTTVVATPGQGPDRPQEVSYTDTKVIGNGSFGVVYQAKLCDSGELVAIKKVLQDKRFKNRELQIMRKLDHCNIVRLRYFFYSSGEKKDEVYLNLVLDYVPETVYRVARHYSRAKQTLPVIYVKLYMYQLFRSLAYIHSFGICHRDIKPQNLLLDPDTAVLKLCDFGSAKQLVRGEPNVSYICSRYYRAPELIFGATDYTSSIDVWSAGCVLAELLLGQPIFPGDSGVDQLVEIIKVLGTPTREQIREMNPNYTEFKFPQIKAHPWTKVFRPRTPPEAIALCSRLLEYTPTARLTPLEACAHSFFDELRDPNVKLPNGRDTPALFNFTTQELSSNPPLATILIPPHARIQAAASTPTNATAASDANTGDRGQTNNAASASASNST

[12] = biological target: T3, High affinity 3',5'-cyclic-AMP phosphodiesterase 7A; experiment: Inhibition of recombinant PDE7A1 (130 to 482 residues) (unknown origin) expressed in Escherichia coli BL21 (DE3) using [3H]cAMP as substrate incubated for 15 mins by liquid scintillation method
Phosphodiesterase 7 [13] = biological target: T2, Phosphodiesterase 7; experiment: Inhibition of PDE7 (unknown origin) by fluorescent based assay; assay type: protein assay
Phosphodiesterase 3 = Phosphodiesterase 3 (Homo sapiens, UniProt Q14432+Q13370); experiment: Inhibition of human recombinant PDE3 expressed in Escherichia coli
[14] = biological target: T4, Glycogen synthase kinase-3 beta; experiment: Inhibition of GSK3beta (unknown origin) activity assessed as […] by ADP-Glo Kinase Assay
[15] = biological target: 3',5'-cyclic-AMP phosphodiesterase 4B (Homo sapiens, UniProt Q07343); experiment: Inhibition of PDE4B1 (unknown origin)
Chain of 3',5'-cyclic-AMP phosphodiesterase 4B (Q07343 whole entry): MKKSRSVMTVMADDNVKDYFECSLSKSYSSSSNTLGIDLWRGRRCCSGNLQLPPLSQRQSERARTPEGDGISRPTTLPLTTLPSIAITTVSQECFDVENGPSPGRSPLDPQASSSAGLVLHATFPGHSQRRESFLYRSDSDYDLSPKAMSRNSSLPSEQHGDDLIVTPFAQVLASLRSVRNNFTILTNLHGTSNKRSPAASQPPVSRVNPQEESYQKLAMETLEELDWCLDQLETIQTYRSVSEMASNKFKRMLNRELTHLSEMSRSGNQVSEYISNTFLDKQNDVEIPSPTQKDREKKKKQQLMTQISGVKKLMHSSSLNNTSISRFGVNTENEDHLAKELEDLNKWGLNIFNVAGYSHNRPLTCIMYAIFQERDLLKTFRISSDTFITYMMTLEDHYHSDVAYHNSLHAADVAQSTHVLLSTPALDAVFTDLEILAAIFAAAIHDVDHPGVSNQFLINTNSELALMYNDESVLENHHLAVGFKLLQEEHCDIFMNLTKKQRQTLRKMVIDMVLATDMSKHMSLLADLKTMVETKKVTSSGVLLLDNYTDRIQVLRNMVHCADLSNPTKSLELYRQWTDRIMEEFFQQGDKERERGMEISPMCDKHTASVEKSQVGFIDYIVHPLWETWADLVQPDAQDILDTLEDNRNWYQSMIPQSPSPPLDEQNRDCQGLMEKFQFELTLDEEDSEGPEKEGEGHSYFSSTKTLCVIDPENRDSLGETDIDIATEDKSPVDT

[16] = Inhibition of PDE8 (unknown origin) by fluorescent based assay; set-up: species or system Homo sapiens
Phosphodiesterase 7 [17] = biological target: T2, Phosphodiesterase 7; experiment: Inhibition of PDE7 (unknown origin); assay type: protein assay
[18] = Aqueous solubility of compound in PBS at pH 6.5; assay type: physicochemical
[19] = Brain to plasma ratio in iv dosed rat measured after 30 mins; assay type: ADME, organism-based; conditions: read-out: BPR
[20] = biological target: T3, High affinity 3',5'-cyclic-AMP phosphodiesterase 7A; experiment: Inhibition of PDE7A (unknown origin)
[21] = Half life in rat; assay type: ADME; conditions: in vivo
[22] = Oral bioavailability in rat; assay type: ADME, organism-based; conditions: in vivo
Homo sapiens = species on record: Homo sapiens; experiment: Selectivity index, ratio of IC50 for human PDE4B1 S133D mutant to IC50 for human PDE4D7 S129D mutant
[23] = biological target: 3',5'-cyclic-AMP phosphodiesterase 4A (Homo sapiens, UniProt P27815); experiment: Inhibition of PDE4A1 (unknown origin)
Chain of 3',5'-cyclic-AMP phosphodiesterase 4A (P27815 whole entry): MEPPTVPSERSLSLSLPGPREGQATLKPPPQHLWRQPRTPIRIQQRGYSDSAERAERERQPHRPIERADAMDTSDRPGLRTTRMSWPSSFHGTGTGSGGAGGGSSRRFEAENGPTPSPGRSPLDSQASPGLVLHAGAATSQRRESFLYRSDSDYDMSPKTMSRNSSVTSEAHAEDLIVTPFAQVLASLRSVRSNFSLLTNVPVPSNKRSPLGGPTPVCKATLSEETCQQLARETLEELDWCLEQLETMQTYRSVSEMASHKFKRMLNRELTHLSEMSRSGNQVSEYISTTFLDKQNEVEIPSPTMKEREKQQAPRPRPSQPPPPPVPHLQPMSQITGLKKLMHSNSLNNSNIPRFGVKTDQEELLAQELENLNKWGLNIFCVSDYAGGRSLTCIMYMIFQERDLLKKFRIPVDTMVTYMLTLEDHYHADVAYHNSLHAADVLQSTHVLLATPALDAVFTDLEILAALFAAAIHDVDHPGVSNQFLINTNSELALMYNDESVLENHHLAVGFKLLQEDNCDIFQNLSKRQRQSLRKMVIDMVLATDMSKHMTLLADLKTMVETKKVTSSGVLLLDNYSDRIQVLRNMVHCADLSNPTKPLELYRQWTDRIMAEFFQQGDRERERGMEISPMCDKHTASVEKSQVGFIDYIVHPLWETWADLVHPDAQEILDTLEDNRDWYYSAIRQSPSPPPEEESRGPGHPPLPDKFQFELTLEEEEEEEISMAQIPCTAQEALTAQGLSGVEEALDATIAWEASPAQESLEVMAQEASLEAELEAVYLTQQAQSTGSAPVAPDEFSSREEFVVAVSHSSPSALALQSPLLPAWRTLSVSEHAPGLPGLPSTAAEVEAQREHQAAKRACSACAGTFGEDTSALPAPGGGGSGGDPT

CSc1nc2c(C)cccc2c(=O)n1-c1c(F)cccc1F
IC50 (Phosphodiesterase 4 [1]): 1400 nM
IC50 (Phosphodiesterase 7 [2]): 130 nM

CCOc1cc2cc(CO)c(CO)c(-c3ccnc(-n4nc(-c5cccnc5)c5ccccc5c4=O)c3)c2cc1OCC
IC50 [3]: 1700 nM
Ratio IC50 [4]: 13
IC50 [5]: 130 nM

O=C1Nc2c(Cl)cc(-c3ccccc3)cc2C2(CCCCC2)N1
IC50 (Phosphodiesterase 7 [6]): 16 nM
IC50 (Phosphodiesterase 4 [7]): 1420 nM

COc1cc(CN(Cc2ccc(OC)cc2OC)c2ncnc3c2nnn3C2CC(C(F)(F)F)CCC2(F)F)cc(OC)c1 (stereo not given)
IC50 (Phosphodiesterase 4 [1]): 11900 nM
IC50 (Phosphodiesterase 7 [2]): < 10 nM

COc1ccc(/C(CSc2nc3ccccc3c(=O)n2-c2ccccc2)=N\O)cc1
IC50 (Phosphodiesterase 7 [2]): 1150 nM

Cn1nc(-c2ccc(Cl)cc2)s/c1=N\c1ccc(F)c(C(=O)O)c1
bioavailability [8]: 49.3%
IC50 [9]: 160 nM
IC50 [10]: 3970 nM

OCC/N=c1/nc(-c2ccccc2)n(-c2ccccc2)s1
IC50 [11]: 1950 nM

CCOc1ccc(-c2c(C(C)(C)O)oc(=O)c3ccccc23)cc1OC1CCCC1
IC50 [12]: 1400 nM

COc1ccc(-c2cc3c(n2-c2ccc(S(=O)(=O)Nc4nc(C)cc(C)n4)cc2)CCC(N2CCN(C)CC2)C3)cc1C (stereo not given)
IC50 [3]: 14 nM
Ratio IC50 [4]: 45
IC50 [5]: 630 nM

COc1cc(Cn2c(=O)c3cc(OC(CF)CF)ccc3n(C3CCN(C=O)CC3)c2=O)ccc1OCC(=O)N1CCCCC1
IC50 (Phosphodiesterase 7 [13]): 46 nM

Br.c1ccc(-c2n/c(=N/CCC3CCOCC3)sn2-c2ccccc2)cc1
IC50 (Phosphodiesterase 3): > 10000 nM
IC50 (Phosphodiesterase 7 [2]): 1590 nM

Cn1nc(-c2ccc(Cl)cc2)s/c1=N\C1CCCCC1
IC50 (Phosphodiesterase 7 [2]): 1500 nM

Cn1nc(-c2ccc(C(N)=O)cc2)s/c1=N\C1CCCCC1
IC50 [9]: 61 nM
IC50 [10]: 15300 nM

CC(C)(C)CSc1nc2ccccc2c(=O)n1-c1ccccc1
IC50 (Phosphodiesterase 7 [2]): 100 nM

c1ccc(-c2n/c(=N/Cc3cccnc3)sn2-c2ccccc2)cc1
IC50 (Phosphodiesterase 7 [13]): 380 nM
IC50 [14]: 1280 nM

FC(F)(F)c1cc(N2C(=S)Nc3ccccc3C23CCc2ccccc2N3)cc(C(F)(F)F)c1 (stereo not given)
IC50 [10]: < 171 nM

COc1ccc(Cn2c(=O)c3cc(OCC#N)ccc3n(C3CCSCC3)c2=O)cc1OC
IC50 (Phosphodiesterase 7 [2]): 5.5 nM

N=c1nc(-c2ccccc2)n(-c2ccccc2)s1
IC50 (Phosphodiesterase 7 [13]): 1020 nM
IC50 [14]: 6300 nM

O=C1Nc2c(Cl)ccc(Oc3ccccc3-c3nnn[nH]3)c2C2(CCCCC2)N1
IC50 [10]: < 0.15 nM

COc1ccc(C2=NN(C3CCN(C(=O)N4CCOCC4)CC3)C(=O)[C@@H]3CC=CC[C@H]23)cc1Cl
IC50 [3]: 23 nM
Ratio IC50 [4]: 10
IC50 [5]: 2.3 nM

S=c1[nH]c2ccccc2c(=S)n1-c1ccccc1
IC50 (Phosphodiesterase 7 [2]): 550 nM

O=C(Nc1ccc(N2CCOCC2)cc1)c1cn(Cc2c(F)cccc2F)c2cccnc2c1=O
IC50 (Phosphodiesterase 4 [1]): 380 nM

CC(C)Cn1c(=O)n(C)c(=O)c2nc[nH]c21 [ISOBUTYLMETHYLXANTHINE]
IC50 (Phosphodiesterase 7 [13]): 8100 nM

O=C1Nc2c(Cl)cc3nc(CN4CCNCC4)oc3c2C2(CCCCC2)N1
IC50 [10]: < 10 nM

CCCCc1nc2c(c(=O)n(C)c(=O)n2C)n1CCCC(=O)Nc1cc(C(C)(C)C)ccc1O
IC50 [15]: 543 nM

O=S1(=O)N=C(O)c2ccccc2N1
IC50 (Phosphodiesterase 7 [2]): 8000 nM

Cn1nc(-c2ccc(C(N)=O)cc2)s/c1=N\[C@@H]1CCC[C@@H](O)C1
bioavailability [8]: 38.5%
IC50 [9]: 88 nM
IC50 [10]: 616 nM

c1ccc(-c2n/c(=N/CCN3CCOCC3)sn2-c2ccccc2)cc1
IC50 (Phosphodiesterase 7 [13]): 1590 nM
IC50 [14]: 880 nM

COc1ccc(Cn2c(=O)c3cc(OC(CF)CF)ccc3n(C3CCN(C=O)CC3)c2=O)cc1OC
IC50 (Phosphodiesterase 7 [13]): 39 nM
IC50 [16]: 140 nM

CCn1c(NC(C)C)nc2c(C3CCN(C(=O)c4cccc(C)n4)C3)csc2c1=O (stereo not given)
IC50 (Phosphodiesterase 7 [17]): 3.3 nM
IC50 (Phosphodiesterase 4 [1]): 46 nM

CCOC(=O)c1sc(Nc2nc(NCc3ccc(S(N)(=O)=O)cc3)c3c(ncn3CC)n2)nc1C
solubility [18]: 5 µg/mL (≈ 9.68 µM)

COc1ccc(C2=NN(C3CCCC3)C(=O)[C@@H]3CC=CC[C@H]23)cc1Cl
IC50 (Phosphodiesterase 3): 0.76 nM
Kp at 0.5 h [19]: 1.69
IC50 [20]: 18.6 nM

COc1ccc(Cn2c(=O)c3cc(OCC#N)ccc3n(C3CC[S+]([O-])CC3)c2=O)cc1OC (stereo not given)
IC50 (Phosphodiesterase 7 [2]): 6.1 nM

CCn1ncc2c(NC3CCOCC3)c(-c3nnc(Cc4sc(C)nc4C)o3)cnc21 [GSK-356278]
IC50 (Phosphodiesterase 3): 5 nM
IC50 [20]: 0.76 nM

N#Cc1cc(Cn2c(=O)c3cc(OC(CF)CF)ccc3n(C3CCN(C=O)CC3)c2=O)ccc1-c1ccccc1
IC50 (Phosphodiesterase 7 [13]): 37 nM
IC50 [16]: 15 nM

CN(C)C(=O)CCN(C)C(=O)c1nc2cc(Cl)c3c(c2o1)C1(CCCCC1)NC(=O)N3
IC50 [10]: < 10 nM

CN1CCN(C(=O)c2ccc(-c3cc(Cl)c4c(c3)C3(CCCCC3)NC(=O)N4)cc2)CC1
IC50 (Phosphodiesterase 7 [6]): 14 nM
half-life [21]: 1.5 h
IC50 (Phosphodiesterase 4 [7]): 1700 nM
bioavailability [22]: 27%

Cc1ccc([N+](=O)[O-])cc1S(=O)(=O)N(C)C
IC50 [3]: 620 nM
Ratio IC50 (Homo sapiens): 238

COc1cc(-c2nc(NC3CCCC3)c3ccsc3n2)cc(OC)c1OC
IC50 (Phosphodiesterase 7 [2]): 20 nM

CCOC(=O)c1cc2c(=O)n3ccccc3nc2n(C2CCCCC2)/c1=N\C(C)=O
IC50 [12]: 142 nM
IC50 [15]: 305 nM
IC50 [23]: 112 nM

O=c1c2ccccc2[nH]c(=S)n1-c1ccccc1
IC50 [3]: 8800 nM

Fc1cc2nc(S)[nH]c(=S)c2cc1F
IC50 (Phosphodiesterase 7 [2]): 74 nM

O=C1Nc2c(Cl)ccc(OCCO)c2C2(CCCCC2)N1
IC50 (Phosphodiesterase 7 [6]): 55 nM
IC50 (Phosphodiesterase 7 [2]): 55 nM

O=C1Nc2c(Cl)cccc2C2(CCCCC2)N1
IC50 (Phosphodiesterase 7 [6]): 170 nM
